Reference: patent publication US12075788B2, “Antimicrobial nano-emulsion” (Laboratoire M2, priority 2019, dated 2024)

Columns and labels:
[1] = concentration similar to body care products; cited from earlier work
[2] = Rats fed 300 mg per day; cited from earlier work
[3] = cited from earlier work
[4] = test system: Erwinia amylovora streptomycin sensitive strain (435s); test: Detached apple flower assay for fire blight blossom infection, streptomycin sensitive strain; type: in vivo; conditions: Streptomycin 17 0.6 g/L; 7 days after inoculation; FIG. 12
Experimental: (§1) Refrigerated dormant 2-year potted apple trees (cv Gala) were forced to bloom at room temperature in late March 2019. Fresh individual flowers were handpicked as they bloomed and placed in small vials containing 10% sucrose, ensuring their pedicels were submerged. The vials were inserted in racks that were placed in small air-tight boxes for incubation at 25° C. A thin layer of a glycerol water solution (33% w/w) in each box maintained constant humidity. Flowers were individually inoculated directly in the hypanthium with 10 μL of a 10^5 CFU/mL suspension of Erwinia amylovora in PBS with Tween 20 at 0.1% w/w. Half the flowers were inoculated with a streptomycin resistant strain (1535m5) collected in Oregon, USA, and the other half with a local streptomycin sensitive strain (435s). […] Approximately 30 minutes after inoculation, 10 randomly selected individual flowers of each strain organized in 5 blocks were flooded with 32 μL of each treatment. […] Severity scores excluding streptomycin treated flowers were analyzed with a cumulative link mixed model (clmm) in the “ordinal” package of R(Christensen 2015) using blocks as a random effect. Because of separation, data with streptomycin were analyzed with the “bract” function of the package “brglm2” under R using mean bias reduction (Kosmidis, Pagui, and Sartori 2019). […]

[5] = test system: Erwinia amylovora streptomycin resistant strain (1535m5); test: Detached apple flower assay for fire blight blossom infection, streptomycin resistant strain; type: in vivo; conditions: Streptomycin 17 0.6 g/L; 7 days after inoculation; FIG. 12
Experimental: as §1

Row | SMILES | irritation and sensitization [1] | effects of feeding [2] | acceptable daily intake ([3]; European Food Safety Authority (EFSA)) | maximum acceptable daily intake for humans ([3]; USA) | effect on fire blight on flowers [4] | effect on fire blight on flowers [5]
1 | C/C=C/C=C/C(=O)[O-].[K+] [potassium sorbate] | practically non-irritating and non-sensitizing | no observed deleterious effects | 3 mg per kg of body weight per day | 25 mg per kg of body weight per day |  | 
2 | [H]/N=C(/N)N[C@H]1[C@H](O)[C@@H](O)[C@H](O[C@@H]2O[C@@H](C)[C@](O)(C=O)[C@H]2O[C@@H]2O[C@@H](CO)[C@H](O)[C@@H](O)[C@@H]2NC)[C@@H](N/C(N)=N\[H])[C@@H]1O [streptomycin] |  |  |  |  | strongly inhibited fire blight | no effect
